Experimental data published in patent US11433036B2, “Oxprenolol compositions for treating cancer” (priority 2013, dated 2022).
“Also recorded” adds a separate entry of the source. Where two headings read alike, the source gives them in different places.

Tests used:
[1] = test system: Yoshida Hepatoma Model; assay: Survival in Yoshida hepatoma model; assay type: in vivo, male Wistar rats; details: for survival: animal inoculated with hepatocellular carcinoma cells, summary statement
Source text: (§1) Ascites hepatoma Yoshida AH-130 cells (10^3 cells) were inoculated into about 200 gram male Wistar rats by i.p. injection. Alternatively animals received saline injection only (sham). The day after inoculation animals were randomized into various groups and then received twice daily treatment with either placebo or various test compositions by oral gavage over a period of up to 17 days. The primary endpoints of the study included assessment of body weight, body composition (with and without tumor), and survival. Body composition was monitored by NMR. Echocardiography was used in instances to monitor condition of the heart. Organ weight was assessed at the end of the study (or after death) as a secondary endpoint. In addition, locomotor activity and food intake were also assessed. FIG. 1 provides a diagram showing the design study. R- and S-oxprenolol were manufactured to order by Peakdale Molecular, Peakdale Science Park, Sheffield Road. Chapel-en-le-Frith, High Peak SK23 0PG, UK
To study the effect of S-oxprenolol and R-oxprenolol on survival, survival was monitored over time.

[2] = test system: Yoshida Hepatoma Model; details: for change of body weight: 5, 12.5, 25 or 50 mg/kg/day, FIG. 7; for change in body weight: S-oxprenolol 20 mg/kg/day vs racemic mixture 40 mg/kg/day, FIG. 8
Source text: as §1
To study the effect of the test compounds on body weight, body weight was monitored over time.
To study the effect of the test compounds as mixtures of enantiomers on body weight, body weight was monitored over time.

[3] = test system: Yoshida Hepatoma Model; details: for change in lean body mass/days alive: FIG. 11B
Source text: as §1
To study the effect of the test compounds on lean body mass, lean mass was determined at the end of the study.
To study the effect of the test compounds as mixtures of enantiomers on lean body mass, lean mass was determined at the end of the study.

[4] = test system: Yoshida Hepatoma Model; details: 5, 12.5, 25 or 50 mg/kg/day; end of study; FIGS. 13A-13D
Source text: as §1
To study the effect of the test compounds on skeletal muscle atrophy and heart weight, the skeletal muscle mass and heart weight were determined at the end of the study.

[5] = test system: Yoshida Hepatoma Model; details: for change in fat mass: FIG. 14
Source text: as §1
To study the effect of the test compounds on fat mass, the fat mass were determined at the end of the study.
To study the effect of the test compounds as mixtures of enantiomers on fat mass, the fat mass were determined at the end of the study.

[6] = test system: Yoshida Hepatoma Model; details: Day 11; for food intake: FIG. 17; for locomotor activity: FIG. 18
Source text: as §1
To study the effect of the test compounds on quality of life, parameters of quality of life such as food intake and locomotor activity were assessed at Day 11.

[7] = test system: Yoshida Hepatoma Model; details: 5, 12.5, 25 or 50 mg/kg/day vs placebo; end of study; FIGS. 19A and 19B
Source text: as §1
To study the effect of the test compounds on tumor growth, tumor growth was assessed at the end of the study.

[8] = test system: B16V (melanoma); details: B16V cells; BrdU incorporation and XTT assay; FIG. 20
Protocol: (§2) The effect of the test compounds on tumor growth was also evaluated in an in vitro experiment with various tumor cells, namely, Kelly (neuroblastoma), Hela-93 (cervix carcinoma), and B16V (melanoma). Cell growth was assessed by BrdU incorporation (left of FIG. 20) and XTT assay (right of FIG. 20). Doxorubicin was used as a positive control.

[9] = test system: Hela-93 (cervix carcinoma); details: Hela-93 cells; BrdU incorporation and XTT assay; FIG. 20
Protocol: as §2

[10] = test system: Kelly (neuroblastoma); details: Kelly cells; BrdU incorporation and XTT assay; FIG. 20
Protocol: as §2

[11] = 25 mg/kg/day or 50 mg/kg/day, oral gavage twice daily, up to 17 days, FIG. 2
[12] = 5, 12.5, 25 or 50 mg/kg/day, FIG. 10
[13] = 5, 12.5, 25 or 50 mg/kg/day, FIG. 15A
[14] = 5, 12.5, 25 or 50 mg/kg/day, FIG. 15B
[15] = 5 mg/kg/day or 25 mg/kg/day vs placebo
[16] = 25 mg/kg/day S-oxprenolol vs same amount of R-oxprenolol
[17] = S-oxprenolol 20 mg/kg/day vs racemic mixture 40 mg/kg/day (same amount of S-oxprenolol), FIG. 3
[18] = S-oxprenolol vs placebo or S-pindolol 3 mg/kg/day, FIG. 4
[19] = S-oxprenolol 20 mg/kg/day vs racemic mixture 40 mg/kg/day, FIG. 11A
[20] = S-oxprenolol 20 mg/kg/day vs racemic mixture 40 mg/kg/day
[21] = S-oxprenolol 20 mg/kg/day vs racemic mixture 40 mg/kg/day, FIG. 16A
[22] = S-oxprenolol 20 mg/kg/day vs racemic mixture 40 mg/kg/day, FIG. 16B

Row | SMILES | percent survival [1, 11] | survival [1] | change of body weight [2] | change in lean body mass [3, 12] | mass of skeletal muscle (gastrocnemius, tibialis anterior, soleus, EDL) [4] | change in fat mass ([5]; 5, 12.5, 25 or 50 mg/kg/day) | weight of white adipose tissue (WAT) [5, 13] | weight of brown adipose tissue (BAT) [5, 14] | food intake [6, 15] | locomotor activity [6, 15] | food intake [6, 16] | locomotor activity [6, 16] | tumor growth (tumor volume, total number of cells in a tumor) [7] | tumor cell proliferation [8] | tumor cell proliferation [9] | tumor cell proliferation [10] | percent survival [1, 17] | percent survival [1, 18] | change in body weight [2] | change in lean body mass [3, 19] | further results
1 | C=CCOc1ccccc1OC[C@H](O)CNC(C)C [R-oxprenolol, (R)-(+)-oxprenolol, reference compound] | did not show statistically significant improvement on survival over those in the placebo group | S-oxprenolol, but not R-oxprenolol, significantly improved survival | rats receiving S-oxprenolol had less body weight loss than those in the placebo group and those administered with R-oxprenolol | rats receiving S-oxprenolol at doses of 12.5 mg/kg/day or higher had less change in lean body mass than those receiving R-oxprenolol | does not have this protective effect | rats receiving S-oxprenolol at 12.5 mg/kg/day or higher had less fat mass loss than those in the placebo group or those receiving R-oxprenolol | S-oxprenolol had better effects in reducing fat wasting than R-oxprenolol | both enantiomers of oxprenolol protect BAT mass | higher food intake than those in the placebo group | higher locomotive activity than those in the placebo group | Rats receiving 25 mg/kg/day S-oxprenolol had higher food intake than those receiving the same amount of R-oxprenolol | Rats receiving 25 mg/kg/day S-oxprenolol had higher locomotive activity than those receiving the same amount of R-oxprenolol | did not have any significant effects on tumor growth compared to those in the placebo group | neither S-oxprenolol nor R-oxprenolol showed any inhibitor effects on tumor cell proliferation | neither S-oxprenolol nor R-oxprenolol showed any inhibitor effects on tumor cell proliferation | neither S-oxprenolol nor R-oxprenolol showed any inhibitor effects on tumor cell proliferation | – | – | – | – | percent survival ([1]; R-oxprenolol 5, 12.5, 25 or 50 mg/kg/day, FIG. 6): no statistically significant survival benefit over placebo was observed
2 | C=CCOc1ccccc1OC[C@@H](O)CNC(C)C [S-oxprenolol, (S)-(−)-oxprenolol] | longer survival than those in the placeo group or those receiving R-oxprenolol | significantly improved survival in animals having cancer | less body weight loss than those in the placebo group and those administered with R-oxprenolol | rats receiving S-oxprenolol at doses of 12.5 mg/kg/day or higher had less change in lean body mass than those receiving R-oxprenolol | reduces wasting of individual hind limb muscles independent of their composition of slow and fast twitch muscle fibers | rats receiving S-oxprenolol at 12.5 mg/kg/day or higher had less fat mass loss than those in the placebo group or those receiving R-oxprenolol | better effects in reducing fat wasting than R-oxprenolol | both enantiomers of oxprenolol protect BAT mass | higher food intake than those in the placebo group | higher locomotive activity than those in the placebo group | higher food intake than those receiving the same amount of R-oxprenolol | higher locomotive activity than those receiving the same amount of R-oxprenolol | did not have any significant effects on tumor growth compared to those in the placebo group | neither S-oxprenolol nor R-oxprenolol showed any inhibitor effects on tumor cell proliferation | neither S-oxprenolol nor R-oxprenolol showed any inhibitor effects on tumor cell proliferation | neither S-oxprenolol nor R-oxprenolol showed any inhibitor effects on tumor cell proliferation | longer survival than those receiving the racemic mixture; also recorded: had an improved effect on survival than the racemic mixture | significantly superior to either placebo or S-pindolol at its preferred dose | less body weight loss than those receiving the racemic mixture | less change in lean body weight than those receiving the racemic mixture | percent survival, comparison of dosages ([1]; S-oxprenolol 5, 12.5, 25, 50, 70 or 100 mg/kg/day, FIGS. 4 and 5): 50 mg/kg/day S-oxprenolol had the best effect on survival among all dosages tested; change in body weight, comparison of dosages ([2]; S-oxprenolol 12.5, 25, 50, 70 or 100 mg/kg/day, FIG. 9): rats receiving 50 mg/kg/day or 100 mg/kg/day of the S-oxprenolol had the least body weight loss; change in lean body mass/days alive [3, 20]: less change in lean body mass than those receiving the racemic mixture; change in lean body mass, comparison of dosages ([3]; S-oxprenolol 12.5, 25, 50, 70 or 100 mg/kg/day, FIG. 12A): rats receiving 100 mg/kg/day of S-oxprenolol had the least change in lean body mass compared to rats receiving other doses; change in lean body mass/days alive, comparison of dosages ([3]; S-oxprenolol 12.5, 25, 50, 70 or 100 mg/kg/day, FIG. 12B): rats receiving 100 mg/kg/day of S-oxprenolol had the least change in lean body mass/days alive compared to rats receiving other doses; weight of white adipose tissue (WAT) [5, 21]: significantly better effect in preserving the white adipose tissue than those receiving the racemic mixture; weight of brown adipose tissue (BAT) [5, 22]: better effect in preserving the brown adipose tissue than those receiving the racemic mixture
3 | C=CCOc1ccccc1OCC(O)CNC(C)C (racemic) [racemic mixture of oxprenolol, 1-[2-(allyloxy)phenoxy]-3-(isopropylamino)propan-2-ol, reference compound] | – | – | – | – | – | – | – | – | – | – | – | – | – | – | – | – | rats receiving S-oxprenolol had longer survival than those receiving the racemic mixture | – | rats receiving S-oxprenolol had less body weight loss than those receiving the racemic mixture | rats receiving S-oxprenolol had less change in lean body weight than those receiving the racemic mixture | change in lean body mass/days alive [3, 20]: rats receiving S-oxprenolol had less change in lean body mass than those receiving the racemic mixture; weight of white adipose tissue (WAT) [5, 21]: rats receiving S-oxprenolol had significantly better effect in preserving the white adipose tissue than those receiving the racemic mixture; weight of brown adipose tissue (BAT) [5, 22]: rats receiving S-oxprenolol had better effect in preserving the brown adipose tissue than those receiving the racemic mixture
4 | CC(C)NC[C@H](O)COc1cccc2[nH]ccc12 [S-pindolol, reference compound] | – | – | – | – | – | – | – | – | – | – | – | – | – | – | – | – | – | S-oxprenolol was significantly superior to either placebo or S-pindolol at its preferred dose | – | – | –
